Results on 7 compounds are retold here after patent US20230257373A1, “QUORUM SENSING INHIBITORS AND METHODS OF USE” (priority 2020, published 2023).

For assay [1], the system named is PluxC-gfp reporter in V. campbellii. In words: PluxC-gfp reporter in V. campbellii strains. The following applies: Vibrio campbellii.
Assay [2] has as its system PluxC-gfp reporter in V. vulnificus. In words: PluxC-gfp reporter in V. vulnificus strains. The following applies: Vibrio vulnificus.
The subject of assay [3] is PluxC-gfp reporter in V. coralliilyticus. In words: PluxC-gfp reporter in V. coralliilyticus strains.
Assay [4] relates to PluxC-gfp reporter in V. parahaemolyticus. Nature of the assay: PluxC-gfp reporter in V. parahaemolyticus strains. The note with it: Vibrio parahaemolyticus.
Setting [5] is: ATCC25920, read-out: Inhibition (IC50) of the PluxC-gfp reporter, Vcamp ATCC 25920.
Setting [6] is: read-out: Inhibition (IC50) of the PluxC-gfp reporter, Vcamp BB120.
Setting [7] is: read-out: Inhibition (IC50) of the PluxC-gfp reporter, Vcamp HY01.
Where [8] appears, read: ATCC27562, read-out: Inhibition (IC50) of the PluxC-gfp reporter, Vvul ATCC 27562.
[9] abbreviates: read-out: Inhibition (IC50) of the PluxC-gfp reporter, Vvul CMPC6.
Setting [10] is: read-out: Inhibition (IC50) of the PluxC-gfp reporter, Vvul YJ016.
Where [11] appears, read: read-out: Inhibition (IC50) of the PluxC-gfp reporter, Vcoral OCN 008.
[12] abbreviates: read-out: Inhibition (IC50) of the PluxC-gfp reporter, Vcoral OCN 014.
Setting [13] is: read-out: Inhibition (IC50) of the PluxC-gfp reporter, Vpara 12-297/B.
Where [14] appears, read: read-out: Inhibition (IC50) of the PluxC-gfp reporter, Vpara D4.
Setting [15] is: read-out: Inhibition (IC50) of the PluxC-gfp reporter, Vpara RIMD 2210633.

Read-outs that look alike come from different tables or passages of the source.

Regarding `O=C(c1ccc(COc2ccc(Cl)cc2)o1)N1CCN(Cc2ccc3c(c2)OCO3)CC1` [P0053 I18, (4-(benzo[d][1,3]dioxol-5-ylmethyl)piperazin-1-yl)(5-((4-chlorophenoxy)methyl)furan-2-yl)methanone], the IC50 in assay [1] (setting [5]) came to 1.8 µM; in assay [1] (setting [6]) it was 2 µM; in assay [1] (setting [7]), 4.3 µM; in assay [2] (setting [8]), 0.7 µM; in assay [2] (setting [9]), 4.9 µM; in assay [2] (setting [10]) it was 3.2 µM. The IC50 in assay [3] (setting [11]) stood at 18.9 µM; in assay [3] (setting [12]), 10.4 µM; in assay [4] (setting [13]) it was 8.1 µM; in assay [4] (setting [14]) it was 6.4 µM; in assay [4] (setting [15]) it was 2.8 µM.
Turning to `O=S(=O)(c1ccc(Br)s1)n1cccc1` [Compound 3A, 1-((5-bromothiophen-2-yl)sulfonyl)-1H-pyrrole], the IC50 amounted to 15 µM in assay [1] (setting [6]); 1.6 µM in assay [1] (setting [7]); 0.7 µM in assay [2] (setting [8]); 6.1 µM in assay [2] (setting [9]); 1.3 µM in assay [2] (setting [10]); 23.1 µM in assay [3] (setting [11]). In addition, the IC50 in assay [3] (setting [12]) was 22.6 µM; in assay [4] (setting [13]), 3 µM; in assay [4] (setting [14]) it was 2.8 µM; in assay [4] (setting [15]) it was 2.6 µM.
As for `O=S(=O)(c1cccs1)n1cccn1` [Compound 1B, 1-(thiophen-2-ylsulfonyl)-1H-pyrazole], the IC50 was found to be 12.8 µM in assay [1] (setting [5]); 52.6 µM in assay [1] (setting [6]); 23.2 µM in assay [1] (setting [7]); 3.4 µM in assay [2] (setting [8]); 29.6 µM in assay [2] (setting [9]); 6.5 µM in assay [2] (setting [10]). Moreover, the IC50 in assay [3] (setting [11]) stood at 55.7 µM; in assay [3] (setting [12]), 101 µM; in assay [4] (setting [13]) it was 11.8 µM; in assay [4] (setting [14]), 18.9 µM; in assay [4] (setting [15]), 15.9 µM.
On to `O=S(=O)(c1ccc(Cl)s1)n1cccc1` [Compound 3C, 1-((5-chlorothiophen-2-yl)sulfonyl)-1H-pyrrole], for which the IC50 in assay [1] (setting [6]) amounted to 8.3 µM; in assay [2] (setting [8]), 0.5 µM; in assay [3] (setting [11]), 1.3 µM; in assay [4] (setting [15]), 2 µM.
For the compound `O=S(=O)(c1cccs1)n1cccc1` [Compound 3B, 1-(thiophen-2-ylsulfonyl)-1H-pyrrole], the IC50 came to 2 µM in assay [1] (setting [5]); 18.9 µM in assay [1] (setting [6]); 3.6 µM in assay [1] (setting [7]); 0.9 µM in assay [2] (setting [8]); 5.9 µM in assay [2] (setting [9]); 1.5 µM in assay [2] (setting [10]). For the same compound, the IC50 stood at 39.2 µM in assay [3] (setting [11]); 95.1 µM in assay [3] (setting [12]); 4 µM in assay [4] (setting [13]); 3.5 µM in assay [4] (setting [14]); 2.5 µM in assay [4] (setting [15]). The “Effect in V. coralliilyticus OCN008 (in words)” value in assay [3] (OCN008) is recorded as “most noticeable effect”.
Turning to `O=S(=O)(c1ccc(Cl)s1)n1cccn1` [Compound 1C, 1-((5-chlorothiophen-2-yl)sulfonyl)-1H-pyrazole], the IC50 was found to be 0.5 µM in assay [1] (setting [5]); 3.3 µM in assay [1] (setting [6]); 1 µM in assay [1] (setting [7]); 0.4 µM in assay [2] (setting [8]); 2.3 µM in assay [2] (setting [9]); 0.8 µM in assay [2] (setting [10]). Besides, the IC50 in assay [3] (setting [11]) came to 9.1 µM; in assay [3] (setting [12]), 9.4 µM; in assay [4] (setting [13]), 1.6 µM; in assay [4] (setting [14]), 12.5 µM; in assay [4] (setting [15]), 1.7 µM.
As for `O=S(=O)(c1ccccc1)n1cccn1` [Compound 1E, 1-(phenylsulfonyl)-1H-pyrazole], the IC50 was 8.4 µM in assay [1] (setting [5]); 51.4 µM in assay [1] (setting [6]); 14.8 µM in assay [1] (setting [7]); 2.7 µM in assay [2] (setting [8]); 22 µM in assay [2] (setting [9]); 4.6 µM in assay [2] (setting [10]). In addition, the IC50 is 49.2 µM in assay [3] (setting [11]); 66.2 µM in assay [3] (setting [12]); 8.1 µM in assay [4] (setting [13]); 12.7 µM in assay [4] (setting [14]); 11 µM in assay [4] (setting [15]).
